Species: Rattus norvegicus
Experiment: DrugMatrix - Regimen: Daily Repeat
Type: toxicity, organism-based, Sprague-Dawley
Parameters: regimen Daily Repeat, gender Male, age 6-8 weeks
Details: in vivo, po, route oral GAVAGE, vehicle 100 % WATER; for ABSOLUTE BASOPHIL / ABSOLUTE EOSINOPHIL / ABSOLUTE LYMPHOCYTE / ABSOLUTE MONOCYTE / ABSOLUTE SEGMENTED NEUTROPHIL / BASOPHIL / EOSINOPHIL / ERYTHROCYTE COUNT / HEMATOCRIT / HEMOGLOBIN / LEUKOCYTE COUNT / LYMPHOCYTE / MEAN CORPUSCULAR HEMOGLOBIN / MEAN CORPUSCULAR HEMOGLOBIN CONCENTRATION / MEAN CORPUSCULAR VOLUME / MONOCYTE / NEUTROPHIL / NUCLEATED RED BLOOD CELLS / PLATELET COUNT: tissue Blood; for ALANINE AMINOTRANSFERASE / ALBUMIN / ALKALINE PHOSPHATASE / ASPARTATE AMINOTRANSFERASE / BLOOD UREA NITROGEN / CARBON DIOXIDE / CHLORIDE / CHOLESTEROL / CREATINE PHOSPHOKINASE / CREATININE / GLUCOSE / LACTATE DEHYDROGENASE / LIPASE / PHOSPHORUS / POTASSIUM / SODIUM / TOTAL BILIRUBIN / TOTAL PROTEIN / URIC ACID: tissue Plasma
[1] = 0 mg/kg, 72 h, dose level Control, time 3 day
[2] = 0 mg/kg, 120 h, dose level Control, time 5 day
[3] = 30 mg/kg, 72 h, dose level Low, time 3 day
[4] = 30 mg/kg, 120 h, dose level Low, time 5 day

## COc1cccc(C2(O)CCCCC2CN(C)C)c1 (configuration not stated) [TRAMADOL]
[1]
  ABSOLUTE BASOPHIL: 0 CELLS/uL
  ABSOLUTE EOSINOPHIL: 32.5 CELLS/uL
  ABSOLUTE LYMPHOCYTE: 9305.83 CELLS/uL
  ABSOLUTE MONOCYTE: 43.83 CELLS/uL
  ABSOLUTE SEGMENTED NEUTROPHIL: 817.83 CELLS/uL
  BASOPHIL: 0%
  EOSINOPHIL: 0.33%
  ERYTHROCYTE COUNT: 5.38 x10E6/uL
  HEMATOCRIT: 33.63%
  HEMOGLOBIN: 13.17 G/DL
  LEUKOCYTE COUNT: 10.2 x10E3/uL
  LYMPHOCYTE: 91.17%
  MEAN CORPUSCULAR HEMOGLOBIN: 24.5 pg
  MEAN CORPUSCULAR HEMOGLOBIN CONCENTRATION: 39.13 G/DL
  MEAN CORPUSCULAR VOLUME: 62.53 fL
  MONOCYTE: 0.5%
  NEUTROPHIL: 8%
  NUCLEATED RED BLOOD CELLS: 0.17 /100WBC
  PLATELET COUNT: 858 x10E3/uL
  ALANINE AMINOTRANSFERASE: 55.67 u/L
  ALBUMIN: 4.07 G/DL
  ALKALINE PHOSPHATASE: 337 u/L
  ASPARTATE AMINOTRANSFERASE: 84 u/L
  BLOOD UREA NITROGEN: 13.17 mg/dL
  CARBON DIOXIDE: 34.17 mmol/L
  CHLORIDE: 99.33 MEQ/L
  CHOLESTEROL: 78.83 mg/dL
  CREATINE PHOSPHOKINASE: 576.83 u/L
  CREATININE: 0.17 mg/dL
  GLUCOSE: 152.67 mg/dL
  LACTATE DEHYDROGENASE: 147.83 u/L
  LIPASE: 9.5 u/L
  PHOSPHORUS: 10.78 mg/dL
  POTASSIUM: 6.34 MEQ/L
  SODIUM: 144.12 MEQ/L
  TOTAL BILIRUBIN: 0.18 mg/dL
  TOTAL PROTEIN: 6.08 G/DL
  URIC ACID: 0.65 mg/dL
[2]
  ABSOLUTE BASOPHIL: 0 CELLS/uL
  ABSOLUTE EOSINOPHIL: 31.17 CELLS/uL
  ABSOLUTE LYMPHOCYTE: 7918.33 CELLS/uL
  ABSOLUTE MONOCYTE: 58.33 CELLS/uL
  ABSOLUTE SEGMENTED NEUTROPHIL: 725.5 CELLS/uL
  BASOPHIL: 0%
  EOSINOPHIL: 0.33%
  ERYTHROCYTE COUNT: 5.32 x10E6/uL
  HEMATOCRIT: 33.53%
  HEMOGLOBIN: 13.17 G/DL
  LEUKOCYTE COUNT: 8.73 x10E3/uL
  LYMPHOCYTE: 90.33%
  MEAN CORPUSCULAR HEMOGLOBIN: 24.82 pg
  MEAN CORPUSCULAR HEMOGLOBIN CONCENTRATION: 39.33 G/DL
  MEAN CORPUSCULAR VOLUME: 63.12 fL
  MONOCYTE: 0.67%
  NEUTROPHIL: 8.67%
  NUCLEATED RED BLOOD CELLS: 0 /100WBC
  PLATELET COUNT: 1144.83 x10E3/uL
  ALANINE AMINOTRANSFERASE: 60.5 u/L
  ALBUMIN: 3.97 G/DL
  ALKALINE PHOSPHATASE: 343.17 u/L
  ASPARTATE AMINOTRANSFERASE: 80.83 u/L
  BLOOD UREA NITROGEN: 15 mg/dL
  CARBON DIOXIDE: 31 mmol/L
  CHLORIDE: 99.75 MEQ/L
  CHOLESTEROL: 71.5 mg/dL
  CREATINE PHOSPHOKINASE: 237.17 u/L
  CREATININE: 0.17 mg/dL
  GLUCOSE: 137 mg/dL
  LACTATE DEHYDROGENASE: 146.17 u/L
  LIPASE: 11.5 u/L
  PHOSPHORUS: 10.13 mg/dL
  POTASSIUM: 6 MEQ/L
  SODIUM: 145 MEQ/L
  TOTAL BILIRUBIN: 0.13 mg/dL
  TOTAL PROTEIN: 5.82 G/DL
  URIC ACID: 0.62 mg/dL
[3]
  ABSOLUTE BASOPHIL: 0 CELLS/uL
  ABSOLUTE EOSINOPHIL: 0 CELLS/uL
  ABSOLUTE LYMPHOCYTE: 6045 CELLS/uL
  ABSOLUTE MONOCYTE: 124.33 CELLS/uL
  ABSOLUTE SEGMENTED NEUTROPHIL: 697.33 CELLS/uL
  BASOPHIL: 0%
  EOSINOPHIL: 0%
  ERYTHROCYTE COUNT: 5.35 x10E6/uL
  HEMATOCRIT: 33.3%
  HEMOGLOBIN: 13.03 G/DL
  LEUKOCYTE COUNT: 6.87 x10E3/uL
  LYMPHOCYTE: 88.33%
  MEAN CORPUSCULAR HEMOGLOBIN: 24.4 pg
  MEAN CORPUSCULAR HEMOGLOBIN CONCENTRATION: 39.13 G/DL
  MEAN CORPUSCULAR VOLUME: 62.23 fL
  MONOCYTE: 1.67%
  NEUTROPHIL: 10%
  NUCLEATED RED BLOOD CELLS: 0.67 /100WBC
  PLATELET COUNT: 1017 x10E3/uL
  ALANINE AMINOTRANSFERASE: 47.33 u/L
  ALBUMIN: 4.13 G/DL
  ALKALINE PHOSPHATASE: 434.67 u/L
  ASPARTATE AMINOTRANSFERASE: 82.67 u/L
  BLOOD UREA NITROGEN: 12.33 mg/dL
  CARBON DIOXIDE: 34.67 mmol/L
  CHLORIDE: 99.67 MEQ/L
  CHOLESTEROL: 72.33 mg/dL
  CREATINE PHOSPHOKINASE: 347.67 u/L
  CREATININE: 0.16 mg/dL
  GLUCOSE: 136.33 mg/dL
  LACTATE DEHYDROGENASE: 123.33 u/L
  LIPASE: 9.33 u/L
  PHOSPHORUS: 11 mg/dL
  POTASSIUM: 6.23 MEQ/L
  SODIUM: 144.43 MEQ/L
  TOTAL BILIRUBIN: 0.2 mg/dL
  TOTAL PROTEIN: 5.93 G/DL
  URIC ACID: 0.8 mg/dL
[4]
  ABSOLUTE BASOPHIL: 0 CELLS/uL
  ABSOLUTE EOSINOPHIL: 97.33 CELLS/uL
  ABSOLUTE LYMPHOCYTE: 8968.67 CELLS/uL
  ABSOLUTE MONOCYTE: 0 CELLS/uL
  ABSOLUTE SEGMENTED NEUTROPHIL: 967.33 CELLS/uL
  BASOPHIL: 0%
  EOSINOPHIL: 1%
  ERYTHROCYTE COUNT: 5.45 x10E6/uL
  HEMATOCRIT: 35.3%
  HEMOGLOBIN: 13.57 G/DL
  LEUKOCYTE COUNT: 10.03 x10E3/uL
  LYMPHOCYTE: 88.67%
  MEAN CORPUSCULAR HEMOGLOBIN: 24.87 pg
  MEAN CORPUSCULAR HEMOGLOBIN CONCENTRATION: 38.47 G/DL
  MEAN CORPUSCULAR VOLUME: 64.67 fL
  MONOCYTE: 0%
  NEUTROPHIL: 10.33%
  NUCLEATED RED BLOOD CELLS: 0 /100WBC
  PLATELET COUNT: 1078.67 x10E3/uL
  ALANINE AMINOTRANSFERASE: 45 u/L
  ALBUMIN: 4.03 G/DL
  ALKALINE PHOSPHATASE: 395 u/L
  ASPARTATE AMINOTRANSFERASE: 72 u/L
  BLOOD UREA NITROGEN: 13 mg/dL
  CARBON DIOXIDE: 30.67 mmol/L
  CHLORIDE: 99 MEQ/L
  CHOLESTEROL: 69.33 mg/dL
  CREATINE PHOSPHOKINASE: 188 u/L
  CREATININE: 0.17 mg/dL
  GLUCOSE: 143.67 mg/dL
  LACTATE DEHYDROGENASE: 113.33 u/L
  LIPASE: 9.33 u/L
  PHOSPHORUS: 11.2 mg/dL
  POTASSIUM: 6.21 MEQ/L
  SODIUM: 144.27 MEQ/L
  TOTAL BILIRUBIN: 0.2 mg/dL
  TOTAL PROTEIN: 5.8 G/DL
  URIC ACID: 1.2 mg/dL

Reference: ChEMBL document CHEMBL3885881, “DrugMatrix”
